Measured values as given in ChEMBL document CHEMBL3232899, “Highly conjugated norditerpenoid and pyrroloquinoline alkaloids with potent PTP1B inhibitory activity from Nigella glandulifera” (J Nat Prod, 2014).

Key:
[1] = molecular target: T1, Tyrosine-protein phosphatase non-receptor type 1 (Homo sapiens, UniProt P18031); assay: Inhibition of PTP1B (unknown origin) using nitrophenyl phosphate as substrate after 30 mins by spectrophotometry
T1 sequence (P18031 whole entry): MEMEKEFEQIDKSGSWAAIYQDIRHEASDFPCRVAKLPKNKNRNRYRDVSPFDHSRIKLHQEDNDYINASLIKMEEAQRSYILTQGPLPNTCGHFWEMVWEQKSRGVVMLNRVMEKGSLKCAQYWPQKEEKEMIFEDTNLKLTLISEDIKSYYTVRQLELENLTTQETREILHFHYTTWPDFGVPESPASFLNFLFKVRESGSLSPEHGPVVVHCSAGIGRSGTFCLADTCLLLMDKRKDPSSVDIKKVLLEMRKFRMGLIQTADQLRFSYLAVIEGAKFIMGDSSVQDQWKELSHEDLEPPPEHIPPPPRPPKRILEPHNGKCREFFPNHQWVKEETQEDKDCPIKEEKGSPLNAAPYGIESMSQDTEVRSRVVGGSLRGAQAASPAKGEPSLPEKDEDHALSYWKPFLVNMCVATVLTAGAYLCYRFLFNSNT

A-431 = assay: Cytotoxicity against human A431 cells at 100 uM by SRB method; type: cell-based; conditions: a-431, 100 µM

Structure (SMILES)	IC50 [1] [µM]	Activity (A-431)
CC1=CC(C)(C)N=C2C[C@@]3(C)CC(=O)C(C(C)C)=CC3=C12	9.97	Non-toxic
CC1=CC(C)(C)N=C2C[C@@]3(C)CC(=O)C(C(C)C)=C3C=C12	9.71	Non-toxic
CC1=CC(C)(C)N=C2C[C@]3(C)C(=O)C(C)(C)N=C3C(C)=C12	6.44	Non-toxic
